Series [1] relates to BV-2. Put plainly: Cytotoxicity against mouse BV2 cells assessed as reduction in cell viability by MTT assay. In kind it is toxicity, cell-based.
Series [2] relates to BV-2. Briefly: Antineuroinflammatory activity against mouse BV-2 cells assessed as inhibition of LPS-induced NO production by Griess assay. In kind it is functional, cell-based.
Series [3] can be described thus: Inhibition of Saccharomyces cerevisiae alpha-glucosidase using pNPG as substrate assessed as release of p-nitrophenol preincubated for 18 mins followed by substrate addition and measured after 30 mins by colorimetric method.

Regarding `C=C1[C@@H]2CC[C@H]3[C@]4(C)C[C@H](O[C@@H]5O[C@H](COC(C)=O)[C@@H](OC(C)=O)[C@H](O[C@@H]6OC[C@H](O)[C@H](O)[C@H]6O)[C@H]5OC(=O)CC(C)C)C[C@@H](C(=O)O)[C@H]4CC[C@]3(C2)[C@H]1O`, the Activity result in series [1] is recorded as “Non-Toxic”. In series [2], the IC50 was determined as 15.6 µM.
With `C=C1[C@@H]2CC[C@H]3[C@]4(C)C[C@H](O[C@@H]5O[C@H](CO)[C@@H](OC(C)=O)[C@H](O[C@@H]6OC[C@H](OC(C)=O)[C@H](O)[C@H]6O)[C@H]5OC(=O)CC(C)C)C[C@@H](C(=O)O)[C@H]4CC[C@]3(C2)[C@H]1O`, the half-inhibitory concentration (IC50) in series [3] amounted to 537 µM.
Same read-out and setting: in the case of `C=C1[C@@H]2CC[C@H]3[C@]4(C)C[C@H](O[C@@H]5O[C@H](CO)[C@@H](O)[C@H](OC(C)=O)[C@H]5OC(=O)CC(C)C)CC(C(=O)O)(C(=O)O)[C@H]4CC[C@]3(C2)[C@H]1O` it was 32.8 µM; in that of `C=C1[C@@H]2CC[C@H]3[C@]4(C)C[C@H](O[C@@H]5O[C@H](CO)[C@@H](O)[C@H](O[C@@H]6OC[C@H](OC(C)=O)[C@H](O)[C@H]6OC(C)=O)[C@H]5OC(=O)CC(C)C)C[C@@H](C(=O)O)[C@H]4CC[C@]3(C2)[C@H]1O`, 373 µM; in that of `C[C@H]1O[C@H](O[C@H]2[C@H](O)[C@@H](O)[C@@H](O[C@H]3[C@H](O)[C@@H](O)C(O)O[C@@H]3CO)O[C@@H]2CO)[C@H](O)[C@@H](O)[C@@H]1N[C@H]1C=C(CO)[C@@H](O)[C@H](O)[C@H]1O` (some centres not stated) [ACARBOSE], 388 µM.
In the case of `CNC(=N)NCCC[C@H](N)C(=O)O` [TILARGININE], the half-maximal inhibitory concentration (IC50) in series [2] was 31.8 µM.
